Assays:
Cdc42 ACT (Cdc42Q61L) = Cdc42 ACT (Cdc42Q61L) (Homo sapiens, UniProt P60953, Q61L); assay: Bead-based flow cytometry dose response, BODIPY-FL-GTP binding; settings: in the presence of Mg ions; read-out: EC50 for Cdc42(Q61L)
Experimental: (§1) Bead sets for multiplex assays were custom synthesized by Duke Scientific Corp (Fremont, Calif.), but may now be ordered from Thermo/Fisher. […] Negative controls, contained the bead mixture with fluorescent GTP, 0.5 mM unlabeled GTP as a competitor, and 1% DMSO. […] The resulting time-dependent data (one file per plate) were analyzed using IDLQuery software to determine the compound activity in each well. Gating based on forward scatter (FS) and side scatter (SS) parameters was used to identify singlet bead populations. Gating based on FL8 emission distinguishes the beads coated with different proteins, and the median fluorescence per bead population was calculated. […] Baselines were set to 100% based on measurements from the 1% DMSO containing positive controls as further described in PubChem. {PubChem #72}
(§2) Briefly, compounds were serially diluted 1:3 a total of eight times from a starting concentration of 10 mM giving a 9-point dilution series in DMSO. The final concentrations of inhibitors in the assay ranged from 10 nM to 100 μM. Dose-response analyses were examined in the presence of NP-HPS buffer containing: a) 1 mM EDTA; or b) 1 mM MgCl2. […] For assays with EDTA we used one multiplex (Rab7 wt, Rab2 wt, H-Ras wt, H-RasG12V, Cdc42 wt, and Cdc42Q61L) and 3 single-plexes (for Rac1 wt, Rac1 Q61L and GST-GFP).
(§3) GTPase activators were identified on the basis of an increase in fluorescent GTP-binding.
(§4) In experiments including magnesium, six GST-GTPases were assayed simultaneously in a single multiplex (Rac1 wt, Rac1Q61L, RhoA wt, RhoAL63, Cdc42 wt and Cdc42Q61L) and 1 nM BODIPY-FL-GTP binding was measured in the presence or absence of the serial drug dilution series. Each dose response series was run in duplicate.

Cdc42 WT = target: T1, Cdc42 WT (Homo sapiens, UniProt P60953); assay: as above; settings: in the presence of Mg ions; read-out: EC50 for Cdc42 wt
T1 construct: purchased Cytoskeleton
Experimental: as §1, §2, §3, §4

Cdc42 in Swiss 3T3 cells = assay: EGF induced Cdc42 membrane localization; assay type: cell-based; settings: 1 μM
Experimental: Subconfluent cells were starved overnight in DMEM without serum and incubated with 1 or 10 μM inhibitor for 1 h. As a positive control, cells were stimulated with 100 ng/ml bradykinin for 30 min, or 100 ng/ml EGF as previously described {Kozma, 1995 #24}. Cells were washed with phosphate buffered saline, fixed with 3% paraformaldehyde, permeabilized for 5 min with 0.1% Triton X-100 in Tyrode's buffer, blocked for 1 h with 1% BSA in Tyrode's buffer, and stained for 1 h with rhodamine-phalloidin or Cdc42 mAb (Cytoskeleton Inc., Denver, Colo.) for 1 h followed by Cy3-conjugated goat-anti-mouse antibody (Jackson Immunoresearch Laboratories) for 1 h, at RT.

RBL-2H3 cells = assay: RBL cell morphology, actin and Cdc42 distribution after activation; assay type: cell-based, rat; settings: 10 μM
Experimental: Live cell microscopy was carried out on RBL-2H3 cells. Cells were grown on coverslips overnight, washed and overlaid with Tyrode's buffer (10 mM Hepes, pH 7.4, 130 mM NaCl, 5 mM KCl, 1.4 mM CaCl2, 1 mM MgCl2, 5.6 mM glucose and 0.1% BSA). Time lapse images were taken after addition of 10 μM MLS000693334 (final concentration) at 60 s intervals for up to 30 min. Activation with Thy-1 cross-linking was performed as described {Surviladze, 1998 #50}. Briefly, RBL cells incubated with OX7 mAb (Santa Cruz Biothechnology) final concentration 50 ug/ml for 1 h at 37 C. The unbound OX7 mAb was washed out with Tyrode's solution and activation initiated by adding anti-mouse IgG (25 ug/ml) (Jackson Immunoresearch Laboratories). Imaging was performed using a Bio-Rad Radiance 2100 confocal microscope equipped with a 60×1.4 NA oil immersion objective equipped with Lasersharp3000 software.
RBL-2H3 cells were grown in RPMI supplemented with 10% fetal bovine serum on cover slips. Semi-confluent cells were washed with Tyrode's solution and incubated with DMSO (vehicle) or 10 μM MLS000693334 for 1 h at 37° C. Inhibitor treated and un-treated cells were stimulated with 1 μg/ml DNP-BSA for 30 min as previously described {Wilson, 1991 #52}. Activation stopped by transferring of samples on ice. […]

[1] = tested on: other Rho family GTPases (Rac1, RhoA); assay: Multiplex dose response with Mg, BODIPY-FL-GTP binding; settings: in the presence of Mg ions
Experimental: as §4

Chain of Cdc42 ACT (Cdc42Q61L) (P60953 whole entry Q61L): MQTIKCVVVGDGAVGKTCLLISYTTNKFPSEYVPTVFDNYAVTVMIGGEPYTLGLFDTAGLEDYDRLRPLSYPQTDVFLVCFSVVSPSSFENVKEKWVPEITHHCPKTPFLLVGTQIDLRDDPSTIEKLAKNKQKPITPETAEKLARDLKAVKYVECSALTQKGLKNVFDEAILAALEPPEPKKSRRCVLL
T1 sequence (P60953 whole entry): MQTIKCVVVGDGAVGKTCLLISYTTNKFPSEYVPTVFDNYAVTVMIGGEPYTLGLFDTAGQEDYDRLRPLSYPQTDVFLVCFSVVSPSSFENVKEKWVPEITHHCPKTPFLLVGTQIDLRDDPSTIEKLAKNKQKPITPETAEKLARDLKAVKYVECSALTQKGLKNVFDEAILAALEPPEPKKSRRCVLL

With `COc1ccc(C2CC(c3ccccc3)=NN2c2ccc(S(N)(=O)=O)cc2)cc1` (stereo not drawn) [MLS000693334, 4-[3-(4-methoxyphenyl)-5-phenyl-3,4-dihydropyrazol-2-yl]benzenesulfonamide] the EC50 (Cdc42 ACT (Cdc42Q61L)) was about 4 µM, the EC50 (Cdc42 WT) was about 4 µM and the “EGF induced localization of Cdc42 on the membrane” value (Cdc42 in Swiss 3T3 cells) was “reduced membrane localization”. For the same molecule, the “Filopodia formation and cell spreading after cross-linking of Thy-1” value (RBL-2H3 cells) was “dramatically inhibits”, the “Morphology of resting RBL-2H3 cells” value (RBL-2H3 cells) was “no change in morphology” and the “Effect on activity of other Rho family GTPases” value [1] was “did not affect activity”.
